Assay results as given in patent publication US20260327195A1, “2-STYRYLBENZOTHIAZOLE DERIVATIVES AS ALPHA-SYNUCLEIN BINDING COMPOUNDS” (Eberhard Karls Universität Tübingen Medizinische Fakultät, priority 2023, published 2026).
Where “and” joins values, the source holds several entries; their conditions need not be identical. Equal entries are not always repeated. Where two headings read alike, the source gives them in different places.

Assays:
[1] = molecular target: T1, human recombinant αSYN fibrils (Homo sapiens, UniProt P37840); experiment: [3H]PiB competition binding assay on αSYN fibrils; conditions: for Ki: competition against 6 nM [3H]PiB, read-out: Ki (mean ± SEM)
Description: (§1) Concentrations of αSYN and Aβ1-42 fibrils were as described above.
Plates were incubated on a shaker (MaxQ 6000, Thermo Fisher Scientific Inc., Marietta, OH, USA) at 50 rpm for 2 hours at 37° C., covered by removable sealing tapes (PerkinElmer, Waltham, MA, USA). […] Data points were fitted using non-linear regression analysis in GraphPad Prism (GraphPad Software, Inc., Version 8.4.0, La Jolla, USA).

[2] = molecular target: T1, human recombinant αSYN fibrils; experiment: [3H]MODAG-001 competition binding assay on αSYN fibrils; conditions: for competition with [3H]MODAG-001: result in words
Description: as §1
Plates were incubated on a shaker (MaxQ 6000, Thermo Fisher Scientific Inc., Marietta, OH, USA) at 50 rpm for 2 hours at 37° C., covered by removable sealing tapes (PerkinElmer, Waltham, MA, USA). Vacuum filtration and read-out were performed as disclosed in Kuebler, L. et al., [^11C]MODAG-001-towards a PET tracer targeting α-synuclein aggregates; European Journal of Nuclear Medicine and Molecular Imaging 2020, 48, 1759-1772. […] Data points were fitted using non-linear regression analysis in GraphPad Prism (GraphPad Software, Inc., Version 8.4.0, La Jolla, USA).

[3] = molecular target: T2, Aβ plaques in AD human brain slices (Homo sapiens, UniProt P05067); experiment: In vitro autoradiography on AD human brain slices (frontal cortex); type: binding
T2 construct: mainly Abeta40/42 cut from APP) in post-mortem AD frontal cortex slices
T2 sequence (P05067 672-713 limits assumed): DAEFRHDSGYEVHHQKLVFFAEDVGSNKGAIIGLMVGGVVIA
Description: (§2) Post-mortem human brain slices (10 μm thickness) were obtained from and the subject cases were analyzed by the Neurobiobank München (NBM, Munich, Germany), where tissues were collected on the basis of written informed consent according to the guidelines of the ethics committee of the Ludwig-Maximilians-University Munich, Germany (#345-13). The use of brain tissue samples in this study was approved by the ethics committee of the Faculty of Medicine at the University of Tuebingen (Ethics approval number: 813/2018BO2). Table 1 summarizes the information of the subjects from which samples were obtained and used in the experiment.
(§3) For autoradiography, brain slices were thawed for one hour before pre-incubation in BSA buffer for 25 minutes at room temperature. To determine total binding (TB), brain slices were incubated with the tracer (10 nM [^18F]PFSB, 10 nM [^18F]MFSB). Incubation of consecutive slices with the correspondent non-radioactive compounds (10 μM PFSB, […]) was performed to determine non-specific binding (NSB). The non-radioactive compounds were prepared by dissolving in DMSO to 10 mM, which yielded DMSO concentration of ≤0.1% in the final solution. Incubation was carried out for one hour at room temperature with subsequent washing in cold BSA buffer (three times for ten minutes) followed by three dipping in cold deionized water. After drying under UV lamps, brain slices were exposed to a storage phosphor screen (Molecular Dynamics, Caesarea, Israel) for 18 hours, which was then scanned in a phosphor imager (STORM 840, Molecular dynamics, Sunnyvale, CA, USA).
(§4) Quantitative data analysis was performed by drawing four regions of interest (ROIs) in relevant areas of the slice and one ROI next to it for background subtraction (ImageJ 1.8.0_172, National Institute of Health, Bethesda, Maryland, USA) (Schneider, C. A. et al., NIH Image to ImageJ: 25 years of image analysis; Nat Methods 2012, 9 (7), 671-5). Specific binding (SB) is obtained by subtracting NSB from TB. The SB disease/SB control ratio was calculated by dividing by the SB in diseased tissues with the respective SB in control tissues.

[4] = molecular target: αSYN pathology in PD human brain slices (Homo sapiens, UniProt P37840); experiment: In vitro autoradiography on PD human brain slices (frontal cortex); type: binding; conditions: 10 nM tracer; NSB with 10 μM non-radioactive compound
Description: as §2
For autoradiography, brain slices were thawed for one hour before pre-incubation in BSA buffer for 25 minutes at room temperature. To determine total binding (TB), brain slices were incubated with the tracer (10 nM [^18F]PFSB, 10 nM [^18F]MFSB). […]
as §4, with “Specific binding (SB) is obtained by subtracting NSB from TB.” left out

[5] = molecular target: αSYN pathology in MSA human brain slices (Homo sapiens, UniProt P37840); experiment: In vitro autoradiography on MSA human brain slices (cerebellum); type: binding
Description: as §2, §3, §4

[6] = molecular target: T3, synthetic human Aβ1-42 fibrils (Homo sapiens, UniProt P05067); experiment: [3H]PiB competition binding assay on Aβ fibrils; conditions: result in words; FIG. 4b, 6b
T3 construct: chain cut from APP
T3 sequence (P05067 672-713): as the sequence (P05067 672-713 limits assumed) above
Excerpt: The method for Aβ1-42 fibrils generation was adapted from Bagchi, D. P. et al., Binding of the radioligand SIL23 to alpha-synuclein fibrils in Parkinson disease brain tissue establishes feasibility and screening approaches for developing a Parkinson disease imaging agent; PLoS One 2013, 8 (2), e55031, and described in Kuebler, L. et al., [^11C]MODAG-001-towards a PET tracer targeting α-synuclein aggregates; European Journal of Nuclear Medicine and Molecular Imaging 2020, 48, 1759-1772. Synthetic lyophilized human Aβ1-42 peptide (5 mg) with >90% purity (EMC Microcollections, Tuebingen, Germany) was dissolved in DMSO (221.5 μL), followed by the addition of deionized water (4.1 mL) and 1 M Tris-HCl (111 μL, pH 7.6) to reach a final monomeric concentration of 250 μM. Aggregation was induced by incubation in Eppendorf Thermomixer at 37° C. with shaking at 800 rpm for 72 hours. […]
Plates were incubated on a shaker (MaxQ 6000, Thermo Fisher Scientific Inc., Marietta, OH, USA) at 50 rpm for 2 hours at 37° C., covered by removable sealing tapes (PerkinElmer, Waltham, MA, USA). Vacuum filtration and read-out were performed as disclosed in Kuebler, L. et al., [^11C]MODAG-001-towards a PET tracer targeting α-synuclein aggregates; European Journal of Nuclear Medicine and Molecular Imaging 2020, 48, 1759-1772. […]

[7] = non-methylated compounds, two data points (three for 9a, 14a, 15a, 17a, 18a; single for 12a)
[8] = methylated compounds, two data points
[9] = 10 nM tracer, NSB with 10 μM non-radioactive compound

For COc1cccc2sc(C=Cc3ccc(N4CCCCC4)cc3)nc12 [Compound 2a, 4-methoxy-2-(4-(piperidin-1-yl)styryl)benzo[d]thiazole], the Ki [1, 7] was > 0.4 µM.
In the case of CN(C)c1ccc(C=Cc2sc3ccccc3[n+]2C)cc1 [Compound 19b, 2-(4-(dimethylamino)styryl)-3-methylbenzo[d]thiazol-3-ium Iodide], the Ki [1, 8] is reported as > 0.4 µM.
In the case of C(=Cc1nc2ccccc2s1)c1ccc(N2CCOCC2)cc1 [Compound 15a, 4-(4-(2-(benzo[d]thiazol-2-yl)vinyl)phenyl)morpholine], the “affinity relative to N-piperidine analog 20” value ([1]; result in words) is reported as “comparable affinity”.
In the case of C[n+]1c(C=Cc2ccc(N3CCSCC3)cc2)sc2ccccc21 [Compound 16b, 3-methyl-2-(4-thiomorpholinostyryl)benzo[d]thiazol-3-ium Iodide], the Ki [1, 8] is reported as > 0.4 µM.
For Fc1ccc2nc(C=Cc3ccc(N4CCOCC4)cc3)sc2c1 [Compound 45, 4-(4-(2-(6-fluorobenzo[d]thiazol-2-yl)vinyl)phenyl)morpholine], the “improvement of affinity (Ki) of MFSB compared to PFSB” value ([1]; [3H]PiB competition, versus PFSB) was 2.5 factor, the “fold lower Ki of MFSB than PFSB” value ([2]; [3H]MODAG-001 competition, versus PFSB) was 4.6 fold and the “competition with [3H]MODAG-001” value [2] was “moderate to good competition”.
In the case of Fc1ccc2nc(C=Cc3ccc(N4CCCCC4)cc3)sc2c1 (mixture of isomers) [Compound 9a, 6-fluoro-2-(4-(piperidin-1-yl)styryl)benzo[d]thiazole], the “competition with [3H]MODAG-001” value [2] is reported as “moderate to good competition”.
For [18F]c1ccc2nc(/C=C/c3ccc(N4CCCCC4)cc3)sc2c1 [[^18F]PFSB], the “SB disease/SB control, AD/frontal cortex ctrl” value [3, 9] was 1.06 and 1.03, the “binding in AD brain regions with Aβ plaques / AD/frontal cortex SB ratio in words” value ([3]; result in words, FIG. 12) was “no increased binding” and the “SB disease/SB control, PD/frontal cortex ctrl” value [4] was 1.51. For the same compound, the “SB disease/SB control, MSA1/cerebellum ctrl” value [5, 9] was 3.73, the “SB disease/SB control, MSA2/cerebellum ctrl” value [5, 9] was 4.15 and the “specific binding ratio of MSA brain slices compared to the control” value ([5]; MSA patients, same brain area, 10 nM tracer) was 3.94±0.30. The “selectivity towards αSYN over Aβ” value ([5]; autoradiography, result in words, FIG. 12) was “selectivity towards αSYN over Aβ” and the “affinity to αSYN pathology” value ([5]; result in words, FIG. 12) was “displayed affinity to αSYN pathology”.
With C[n+]1c(-c2ccc(N3CCCCC3)cc2)sc2ccccc21 [Compound 13b, 3-methyl-2-(4-(piperidin-1-yl)phenyl)benzo[d]thiazol-3-ium] the Ki [1, 8] was > 0.4 µM.
With Fc1ccc2nc(C=CC=Cc3ccc(N4CCCC4)cc3)sc2c1 [Compound 44, 6-fluoro-2-(4-(4-(pyrrolidin-1-yl)phenyl)buta-1,3-dien-1-yl)benzo[d]thiazole] the “competition with [3H]PiB / binding to Aβ fibrils” value [6] was “the binding to Aβ remained low”.
C[n+]1c(C=Cc2ccc(N3CCC(F)CC3)cc2)sc2ccccc21 [Compound 18b, 2-(4-(4-fluoropiperidin-1-yl)styryl)-3-methylbenzo[d]thiazol-3-ium Iodide] was tested, and the Ki [1, 8] was > 0.4 µM.
With Cc1cccc2nc(C=Cc3ccc(N4CCCCC4)cc3)sc12 [Compound 10a, 7-methyl-2-(4-(piperidin-1-yl)styryl)benzo[d]thiazole] the Ki [1, 7] was > 0.4 µM.
With C[n+]1c(C=Cc2ccc(N3CCCCC3)cc2)sc2cccc(F)c21 [Compound 3b, 4-fluoro-3-methyl-2-(4-(piperidin-1-yl)styryl)benzo[d]thiazol-3-ium 4-nitrobenzenesulfonate] the Ki [1, 8] was > 0.4 µM.
With COc1cccc2nc(C=Cc3ccc(N4CCCCC4)cc3)sc12 [Compound 11a, 7-methoxy-2-(4-(piperidin-1-yl)styryl)benzo[d]thiazole] the Ki [1, 7] was > 0.4 µM.
For CN(C)c1ccc(C=Cc2nc3ccccc3s2)cc1 [Compound 19a, 4-(2-(benzo[d]thiazol-2-yl)vinyl)-N,N-dimethylaniline], the Ki [1, 7] was > 0.4 µM.
With C[n+]1c(C=Cc2ccc(N3CCCCC3)cc2)sc2c(F)cccc21 [Compound 12b, 7-fluoro-3-methyl-2-(4-(piperidin-1-yl)styryl)benzo[d]thiazol-3-ium Iodide] the Ki [1, 8] was > 0.4 µM.
For CN1CCN(c2ccc(C=Cc3sc4ccccc4[n+]3C)cc2)CC1 [RB2, 3-methyl-2-(4-(4-methylpiperazin-1-yl)styryl)benzo[d]thiazol-3-ium Iodide, reference compound], the Ki [1, 8] was > 0.4 µM.
With C[n+]1c(C=Cc2ccc(N3CCOCC3)cc2)sc2ccccc21 [Compound 15b, 3-methyl-2-(4-morpholinostyryl)benzo[d]thiazol-3-ium Iodide] the Ki [1, 8] was > 0.4 µM.
Fc1ccc2nc(C=CC=Cc3ccc(N4CCCCC4)cc3)sc2c1 [Compound 43, 6-fluoro-2-(4-(4-(piperidin-1-yl)phenyl)buta-1,3-dien-1-yl)benzo[d]thiazole] was tested, and the “competition with [3H]PiB / binding to Aβ fibrils” value [6] was “the binding to Aβ remained low”.
